# Like-named read-outs stand apart in the source and are kept apart here. Non-standard residues stand in square brackets, D forms with d. Residues, ends and D or L forms follow the SMILES beside them. Cit = NC(=O)NCCC[C@H](N)C(=O)O
# What was measured:
# [1] = pKa, pI and charge distribution of buffers; conditions: for % salt: fraction of dipeptide carrying a net charge in aqueous solution at pH equal to pI
# Excerpt: At the pI, three species coexist.
# In an electric field these negative species move in the opposite direction of their positive associated counterions.
# Choice of the dipeptide buffer will be on a case-by-case basis depending on the drug compound and the desired level of pH control and conductivity of the formulation.
# [2] = In vivo iontophoresis, pH control of anodic and cathodic buffer gels (Example 2); design: species or system hairless guinea pigs; Ionic strength (approx.): unit not given here; conditions: for Anodic pH after 5 h electrotransport / Cathodic pH after 5 h electrotransport: 0.1 mA/cm^2; for Initial pH: prior to application; for pH control of a cathodic electrotransport formulation: for at least 5 hours; for pH control of a cathodic electrotransport formulation / pH control of an anodic electrotransport formulation: dipeptides at their pI; for pH control of an anodic electrotransport formulation: for several hours
# Description: In vivo iontophoresis experiments were performed using custom built electrotransport systems. […] This formulation was separated from the anode electrode by a Sybron ion exchange membrane. […] The cathode-compartment comprised a skin-contacting gel containing the aqueous solution of the buffering agent at the indicated concentration and 3% HEC. This formulation was separated from the cathode electrode by a Nafion ion exchange membrane. […] The electrodes were connected to a DC power source which supplied a constant level of electric current of 0.1 mA/cm^2. Experiments were performed in vivo in hairless guinea pigs. Three animals were used for each condition studied. The electrotransport systems were applied to and removed from the flank of the animals. The two reservoirs were generally spaced about 5 cm apart. The application site was wiped with water prior to system application. pH of the gels was measured prior to application and after removal of the systems using a HORIBA compact pH […]).
# [3] = Solubility of dipeptides at their pI; assay type: physicochemical
# Excerpt: (§1) Table 1 lists conductivities and solubilities of selected dipeptides useful in the present invention, at their pI.
# [4] = Conductivity of dipeptides at their pI; assay type: physicochemical
# Excerpt: as §1
# [5] = anodic gel, listed as Phosphate 33 mM
# [6] = anodic gel, listed as Phosphate 100 mM
Compound,pka A [1],pI ([1]; Table 2),% salt [1] [%],also measured
"O=S(=O)(O)CCCN1CCOCC1 [MOPS, 3-[N-morpholino]propanesulphonic acid, reference compound]",,,,"pI [1]: 4; buffering capacity at its pI ([1]; at pI): does not present any buffering capacity; conductivity of solutions at its pI ([1]; at pI): non-conductive; net charge at pH 7 ([1]; pH 7): −0.5; Ionic strength (approx.) ([2]; Table 3, anodic buffer gel): ~0.01; Ionic strength (approx.) ([2]; Table 4, cathodic buffer gel): ~0.01; Anodic pH after 5 h electrotransport ([2]; anodic gel): 4.1; Initial pH ([2]; anodic gel): 7.0; Cathodic pH after 5 h electrotransport ([2]; cathodic gel): 5.4; Initial pH ([2]; cathodic gel): 7.0; pH control of a cathodic electrotransport formulation [2]: lack of stability; pH control of an anodic electrotransport formulation [2]: lack of stability"
N[C@@H](Cc1cnc[nH]1)C(=O)NCC(=O)O [His-Gly] (H-His-Gly-OH),2.41,6.90,16,Solubility [3]: 1.00 mol/L; pI ([1]; Table 1): 6.90; Conductivity at 10^−2 Molar [4]: 40 μS/cm
NCCCC[C@H](N)C(=O)N[C@@H](CC(=O)O)C(=O)O [Lys-Asp] (H-Lys-Asp-OH),,6.08,2,Solubility [3]: 1.00 mol/L; pI ([1]; Table 1): 6.08; Conductivity at 10^−2 Molar [4]: 6 μS/cm
"O=P(O)(O)O [phosphate, phosphoric acid, reference compound]",,,,"Ionic strength (approx.) ([2]; Table 3, anodic buffer gel, listed as Phosphate 10 mM): ~0.015; Ionic strength (approx.) ([2]; Table 3, anodic buffer gel, listed as Phosphate 33 mM): ~0.05; Ionic strength (approx.) ([2]; Table 3, anodic buffer gel, listed as Phosphate 100 mM): ~0.15; Ionic strength (approx.) ([2]; Table 4, cathodic buffer gel): ~0.015; Anodic pH after 5 h electrotransport [2, 5]: 3.3; Anodic pH after 5 h electrotransport [2, 6]: 6.5; Initial pH ([2]; anodic gel, listed as Phosphate 10 mM): 6.9; Initial pH [2, 5]: 6.9; Initial pH [2, 6]: 6.8; Cathodic pH after 5 h electrotransport ([2]; cathodic gel): 4.2; Initial pH ([2]; cathodic gel): 6.9; pH control of a cathodic electrotransport formulation [2]: lack of stability; pH control of an anodic electrotransport formulation [2]: lack of stability"
N[C@@H](Cc1cnc[nH]1)C(=O)N[C@@H](CC(=O)O)C(=O)O [His-Asp] (H-His-Asp-OH),,5.22,11,Solubility [3]: 0.05 mol/L; pI ([1]; Table 1): 5.22; Conductivity at 10^−2 Molar [4]: 28 μS/cm
N[C@@H](Cc1cnc[nH]1)C(=O)N[C@@H](Cc1c[nH]c2ccccc12)C(=O)O [His-Trp],3.07,6.95,22,
NC(N)=NCCC[C@H](NC(=O)[C@@H](N)CCC(=O)O)C(=O)O [Glu-Arg] (H-Glu-Arg-OH),,6.00,2,
NCCCC[C@H](NC(=O)[C@@H](N)CCC(=O)O)C(=O)O [Glu-Lys] (H-Glu-Lys-OH),,6.00,2,Solubility [3]: 1.00 mol/L; pI ([1]; Table 1): 6.00; Conductivity at 10^−2 Molar [4]: 6 μS/cm
NC(N)=NCCC[C@H](NC(=O)[C@@H](N)Cc1ccc(O)cc1)C(=O)O [Tyr-Arg],,8.40,17,
CSCC[C@H](N)C(=O)N[C@@H](Cc1cnc[nH]1)C(=O)O [Met-His] (H-Met-His-OH),2.42,7.35,30,
N[C@@H](Cc1cnc[nH]1)C(=O)N1CCC[C@H]1C(=O)O [His-Pro],2.62,6.95,22,
Gly-Gly-His,,,,pI [1]: 7.5
N[C@@H](CO)C(=O)N[C@@H](Cc1cnc[nH]1)C(=O)O [Ser-His] (H-Ser-His-OH),2.42,7.20,36,
NCC(O)CC[C@H](NC(=O)[C@@H](N)Cc1c[nH]cn1)C(=O)O (stereo partly shown) [His-Hydroxylysine],3.05,8.75,17,
NCCC(=O)N[C@@H](Cc1c[nH]cn1)C(=O)O [Beta-Alanylhistidine],,7.70,16,
C[C@@H](O)[C@H](N)C(=O)N[C@@H](Cc1cnc[nH]1)C(=O)O [Thr-His] (H-Thr-His-OH),2.42,7.15,39,
NCCCC[C@H](NC(=O)[C@@H](N)Cc1cnc[nH]1)C(=O)O [His-Lys] (H-His-Lys-OH),3.05,9.40,5,
N[C@@H](Cc1cnc[nH]1)C(=O)N[C@@H](CO)C(=O)O [His-Ser] (H-His-Ser-OH),2.65,6.95,22,

Compound,pka A [1],pI ([1]; Table 2),% salt [1] [%],also measured
NC(=O)CC[C@H](N)C(=O)N[C@@H](Cc1cnc[nH]1)C(=O)O [GIn-His] (H-Gln-His-OH),2.42,7.20,36,
CC(C)[C@H](N)C(=O)N[C@@H](Cc1cnc[nH]1)C(=O)O [Val-His] (H-Val-His-OH),3.09,7.38,34,Solubility [3]: 0.20 mol/L; pI ([1]; Table 1): 7.38; Conductivity at 10^−2 Molar [4]: 94 μS/cm
His-Gly-Gly-Gly (HGGG; printed: His-Gly-Gly-Gly),,,,pI [1]: 6.9
NC(=O)CC[C@H](NC(=O)[C@@H](N)Cc1cnc[nH]1)C(=O)O [His-Gln] (H-His-Gln-OH),2.93,6.95,22,
N[C@@H](Cc1c[nH]c2ccccc12)C(=O)N[C@@H](Cc1cnc[nH]1)C(=O)O [Trp-His] (H-Trp-His-OH),2.42,7.30,32,
O=C(O)[C@H](Cc1c[nH]cn1)NC(=O)[C@@H]1CC(O)CN1 (stereo partly shown) [Hydroxyproline-His],2.42,7.45,25,
CC[C@H](C)[C@H](N)C(=O)N[C@@H](Cc1cnc[nH]1)C(=O)O [Isoleucine-His] (H-Ile-His-OH),2.42,7.44,25,
N[C@@H](Cc1c[nH]cn1)C(=O)N1CC(O)C[C@H]1C(=O)O (stereo partly shown) [His-Hydroxyproline],2.42,6.95,22,
NC(=O)C[C@H](N)C(=O)N[C@@H](Cc1cnc[nH]1)C(=O)O [Asn-His] (H-Asn-His-OH),2.42,7.00,44,
Gly-Gly-Gly-Gly-His (GGGGH; printed: Gly-Gly-Gly-Gly-His),,,,pI [1]: 7.55
N[C@@H](Cc1ccccc1)C(=O)N[C@@H](Cc1cnc[nH]1)C(=O)O [Phe-His] (H-Phe-His-OH),2.42,7.20,36,
CC(C)C[C@H](N)C(=O)N[C@@H](Cc1cnc[nH]1)C(=O)O [Leu-His] (H-Leu-His-OH),2.42,7.50,24,
NCCC(=O)N[C@@H](Cc1cnc[nH]1)C(=O)O [Carnosine],,8.17,8,
His-Gly-Gly,,,,pI [1]: 6.9
C[C@H](N)C(=O)N[C@@H](Cc1cnc[nH]1)C(=O)O [Ala-His] (H-Ala-His-OH),2.42,7.55,22,
NCCC[C@H](N)C(=O)N[C@@H](Cc1c[nH]cn1)C(=O)O [Ornithine-His],2.42,9.20,3,
NC(=O)NCCC[C@H](NC(=O)[C@@H](N)Cc1c[nH]cn1)C(=O)O [His-Citrulline] (H-His-[Cit]-OH),3.05,6.95,22,
CC(C)[C@H](NC(=O)[C@@H](N)Cc1cnc[nH]1)C(=O)O [His-Val] (H-His-Val-OH),3.18,6.95,22,
